Laboratory results: US7572439B2, “Enzyme disruption of bacterial biofilms” (priority 2002, dated 2009)

Columns and labels:
[1] = test system: Methicillin Sensitive S. aureus; assay: Treatment of established infection in jugular vein catheterized mice; assay type: in vivo; details: Table 4, MSSA, Nafcillin (50) b.i.d. 4 days
Description: Jugular vein catheterized mice (Charles River Labs) were used. The mice were challenged through the tail vein with S. aureus (10^3-10^4CFU, a much lower dose than the 5×10^6 CFU or greater typically necessary to establish an infection in mice not catheterized). Treatment began four days post challenge when infection was established. Lysostaphin was administered through the indwelling catheter in a volume of 200 μ PBS (in the case of methicillin resistant S. aureus, nafcillin was added to the treatment). After the final treatment of the day, 50 μl of a lock solution (50% sterile glucose solution) with lysostaphin (and nafcillin, when used), added at the same concentration as used for treatment, was put in the catheters. Control mice received equal treatments with PBS and lock solution alone.
On the day following the last treatment the liver, heart and a portion of the catheter in the heart were harvested. The catheter portions were sonicated to release bacteria.

[2] = test system: biofilms of S. aureus SA113; assay: Kinetic effect on established biofilms: absorbance at 650 nm and safranin staining; assay type: cell-based; details: for effect on established biofilms (safranin): 400 μg/ml oxacillin or 800 μg/ml vancomycin, PBS or TSB, 24 hours; for absorbance of biofilms at 650 nM: as much as 400 μg/ml oxacillin or 800 μg/ml vancomycin in PBS; for absorbance of biofilms at 650 nM / effect on S. aureus biofilms (FIG. 8 legend): twenty four hours; for effect on absorbance of biofilms: in TSB, 24 hours (data not shown); for effect on S. aureus biofilms (FIG. 8 legend): PBS or bacterial media
Description: Oxacillin and vancomycin have often been used in antibiotic susceptibility studies of S. aureus biofilms. […] Twenty four-hour biofilms in polystyrene 96-well tissue culture plates were treated with serial dilutions of lysostaphin, oxacillin, and vancomycin (FIG. 7).
In order to examine the kinetic effect of lysostaphin, oxacillin and vancomycin on biofilms, the absorbance of established biofilms in a 96-well tissue culture plate was measured over time (0-3 hrs and 24 hrs). Tissue culture wells containing biofilms of S. aureus SA113 were incubated with serial dilutions of lysostaphin ([…]), oxacillin ([…]), or vancomycin ([…]) for 24 hours, and the absorbance at 650 nm was monitored every 20 minutes for the first 3 hours and then again at 24 hours. The absorbance of the lysostaphin-treated biofilms dropped from approximately 0.35 at time zero to 0.125 after 3 hours of treatment and dropped to near base line (0.04) by 24 hrs when treated with a dose of lysostaphin of 6.25 μg/ml in PBS (FIG. 7). […] Since antimicrobials like oxacillin or vancomycin are effective against actively metabolizing bacteria, a similar experiment was conducted but the biofilms were incubated with the three anti-microbials in bacterial media (TSB). Very similar results were also found when the assay was conducted in TSB rather than PBS.
The capacity of the three agents to disrupt S. aureus biofilms in polystyrene wells can be visualized by comparing the staining intensity of treated wells versus control (buffer-treated) wells.

| Structure (SMILES) | S. aureus recovered, Heart [1] [CFU] | effect on established biofilms (safranin) [2] | absorbance of biofilms at 650 nM [2] | effect on absorbance of biofilms [2] | effect on absorbance of S. aureus biofilms over time (FIG. 7 legend) ([2]; lysostaphin 6.25 cg/ml, vancomycin 800 cg/ml, oxacillin 400 cg/ml) | effect on S. aureus biofilms (FIG. 8 legend) ([2]; oxacillin 1.6-400 cg/ml, vancomycin 3.2-800 cg/ml) | effect on absorbance of S. aureus biofilms over time (FIG. 7 legend) ([2]; lysostaphin 6.25 μg/ml, vancomycin 800 μg/ml, oxacillin 400 μg/ml) | effect on S. aureus biofilms (FIG. 8 legend) ([2]; oxacillin 1.6-400 μg/ml, vancomycin 3.2-800 μg/ml) |
| --- | --- | --- | --- | --- | --- | --- | --- | --- |
| CCOc1ccc2ccccc2c1C(=O)N[C@@H]1C(=O)N2[C@@H]1SC(C)(C)[C@@H]2C(=O)O [Nafcillin, nafcillin, reference compound] | 0 | – | – | – | – | – | – | – |
| Cc1onc(-c2ccccc2)c1C(=O)N[C@@H]1C(=O)N2[C@@H]1SC(C)(C)[C@@H]2C(=O)O [oxacillin] | – | no obvious effect | around 0.325 | little or no effect | no effect | no effect | – | – |
| CN[C@H](CC(C)C)C(=O)N[C@H]1C(=O)N[C@@H](CC(N)=O)C(=O)N[C@H]2C(=O)N[C@H]3C(=O)N[C@H](C(=O)N[C@H](C(=O)O)c4cc(O)cc(O)c4-c4cc3ccc4O)[C@H](O)c3ccc(c(Cl)c3)Oc3cc2cc(c3O[C@@H]2O[C@H](CO)[C@@H](O)[C@H](O)[C@H]2O[C@H]2C[C@](C)(N)[C@H](O)[C@H](C)O2)Oc2ccc(cc2Cl)[C@H]1O [vancomycin] | – | no obvious effect | around 0.325 | little or no effect | – | – | no effect | no effect |
